The results in this text go back to patent US20250206732A1, “COMPOUNDS AND METHODS FOR THE TARGETED DEGRADATION OF KRAS” (Arvinas Operations, Inc., priority 2022, published 2025).

The target of this experiment is T1, AsPC-1 HiBiT-KRASG12D (Homo sapiens, UniProt P01116, G12D).
T1 construct: insert the HiBiT tag onto the N-terminus of one or more of the endogenous KRAS alleles; endogenous in cells; host or cells: AsPC-1 (ATCC CRL-1682), CRISPR-Cas9 knock-in clone, one tagged allele
The experiment in a line: HiBiT degradation assay (G12D), AsPC-1 HiBiT-KRASG12D cells. The conditions noted are these: 24 hours treatment; for Dmax: ASPC1, AsPC-1 HiBiT-KRASG12D cells, maximum degradation observed; for DC50: AsPC-1 HiBiT-KRASG12D cells, HiBiT luminescence. Format: cell-based. The method in brief: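 HiBiT-KRAS abundance was read as Nano-Glo HiBiT lytic luminescence (45 min, room temperature) after a PBS wash. Before that, a 4 h alamar blue fluorescence read, normalized to DMSO, monitored viability. Treatment lasted 24 hours at 37 °C, in triplicate, using AsPC-1 cells with endogenous N-terminally HiBiT-tagged KRAS G12D.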
(HiBiT is a short tag that completes a luciferase, so light tracks the accessible tagged protein.)

T1 sequence (P01116 1-188 isoform P01116-2 G12D): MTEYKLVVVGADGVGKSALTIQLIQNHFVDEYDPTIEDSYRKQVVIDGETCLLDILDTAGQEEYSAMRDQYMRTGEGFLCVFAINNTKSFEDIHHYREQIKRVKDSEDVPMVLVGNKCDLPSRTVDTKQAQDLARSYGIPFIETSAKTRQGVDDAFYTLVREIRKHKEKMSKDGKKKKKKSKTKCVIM

One may read the Dmax as the largest share of the target that was removed. A lower Dmax goes with shallow degradation. Broadly, the DC50 is the concentration giving 50% degradation. `CCc1cccc2cc(O)cc(-c3ncc4c(N5C[C@H]6CC[C@@H](C5)N6)nc(OCCN5CCC(C)(CN6CCN(c7cc([C@H](C(=O)N8C[C@H](O)C[C@H]8C(=O)N[C@@H](C)c8ccc(-c9scnc9C)cc8)C(C)C)on7)CC6)CC5)nc4c3F)c12` [Compound 187, (2S,4R)-1-((R)-2-(3-(4-((1-(2-((4-((1R,5S)-3,8-diazabicyclo[3.2.1]octan-3-yl)-7-(8-ethyl-3-hydroxynaphthalen-1-yl)-8-fluoropyrido[4,3-d]pyrimidin-2-yl)oxy)ethyl)-4-methylpiperidin-4-yl)methyl)piperazin-1-yl)isoxazol-5-yl)-3-methylbutanoyl)-4-hydroxy-N—((S)-1-(4-(4-methylthiazol-5-yl)phenyl)ethyl)pyrrolidine-2-carboxamide] registered a Dmax of 80 to 100% and a DC50 below 600 nM.
The like results for `CCc1cccc2cc(O)cc(-c3ncc4c(N5C[C@H]6CC[C@@H](C5)N6)nc(OCCN5CCC(C)(CN6CCN(c7cc([C@@H](C(=O)N8C[C@H](O)C[C@H]8C(=O)N[C@@H](C)c8ccc(-c9scnc9C)cc8)C(C)C)on7)CC6)CC5)nc4c3F)c12` [Compound 188, (2S,4R)-1-((S)-2-(3-(4-((1-(2-((4-((1R,5S)-3,8-diazabicyclo[3.2.1]octan-3-yl)-7-(8-ethyl-3-hydroxynaphthalen-1-yl)-8-fluoropyrido[4,3-d]pyrimidin-2-yl)oxy)ethyl)-4-methylpiperidin-4-yl)methyl)piperazin-1-yl)isoxazol-5-yl)-3-methylbutanoyl)-4-hydroxy-N—((S)-1-(4-(4-methylthiazol-5-yl)phenyl)ethyl)pyrrolidine-2-carboxamide] were, in that order, 20 to 60% and 1000 to 3000 nM.
Molecule `CCc1cccc2cc(O)cc(-c3ncc4c(N5CC6CCC(C5)N6)nc(N5CC(CN6CCC(CC7CN(c8cc([C@@H](C(=O)N9C[C@H](O)C[C@H]9C(=O)N[C@@H](C)c9ccc(-c%10scnc%10C)cc9)C(C)C)on8)C7)CC6)C5)nc4c3F)c12` [Compound 189, (2S,4R)-1-[(2S)-2-(3-{3-[(1-{[1-(4-{3,8-diazabicyclo[3.2.1]octan-3-yl}-7-(8-ethyl-3-hydroxynaphthalen-1-yl)-8-fluoropyrido[4,3-d]pyrimidin-2-yl)azetidin-3-yl]methyl}piperidin-4-yl)methyl]azetidin-1-yl}-1,2-oxazol-5-yl)-3-methylbutanoyl]-4-hydroxy-N-[(1S)-1-[4-(4-methyl-1,3-thiazol-5-yl)phenyl]ethyl]pyrrolidine-2-carboxamide] came in with a 50% degradation concentration (DC50) above 3000 nM.
Turning to `C#Cc1c(F)ccc2cc(O)cc(-c3ncc4c(N5CC6CCC(C5)N6)nc(OCCN5CCC(CN6CCN(c7cc([C@H](C(=O)N8C[C@H](O)C[C@H]8C(=O)N[C@@H](C)c8ccc(-c9ccnn9C)cc8)C(C)C)on7)CC6)CC5)nc4c3F)c12` [Compound 190, (2S,4R)-1-[(2R)-2-(3-{4-[(1-{2-[(4-{3,8-diazabicyclo[3.2.1]octan-3-yl}-7-(8-ethynyl-7-fluoro-3-hydroxynaphthalen-1-yl)-8-fluoropyrido[4,3-d]pyrimidin-2-yl)oxy]ethyl}piperidin-4-yl)methyl]piperazin-1-yl}-1,2-oxazol-5-yl)-3-methylbutanoyl]-4-hydroxy-N-[(1S)-1-[4-(1-methyl-1H-pyrazol-5-yl)phenyl]ethyl] pyrrolidine-2-carboxamide], the maximal degradation (Dmax) lay within 80 to 100% and the 50% degradation concentration (DC50) was below 600 nM.
On the same counts, the results for `CCc1cccc2cc(O)cc(-c3ncc4c(N5CC6CCC(C5)N6)nc(OCCN5CCC(CN6CCN(c7cc([C@H](C(=O)N8C[C@H](O)C[C@H]8C(=O)N[C@@H](C)c8ccc(-c9ccnn9C)cc8)C(C)C)on7)CC6)CC5)nc4c3F)c12` [Compound 191, (2S,4R)-1-[(2R)-2-(3-{4-[(1-{2-[(4-{3,8-diazabicyclo[3.2.1]octan-3-yl}-7-(8-ethyl-3-hydroxynaphthalen-1-yl)-8-fluoropyrido[4,3-d]pyrimidin-2-yl)oxy]ethyl}piperidin-4-yl)methyl]piperazin-1-yl}-1,2-oxazol-5-yl)-3-methylbutanoyl]-4-hydroxy-N-[(1S)-1-[4-(1-methyl-1H-pyrazol-5-yl)phenyl]ethyl]pyrrolidine-2-carboxamide] are 80 to 100% and below 600 nM.
As to `CCc1cccc2cc(O)cc(-c3ncc4c(N5CC6CCC(C5)N6)nc(N5CCC(CN6CCC(CC7CN(c8cc([C@H](C(=O)N9C[C@H](O)C[C@H]9C(=O)N[C@@H](C)c9ccc(-c%10scnc%10C)cc9)C(C)C)on8)C7)CC6)CC5)nc4c3F)c12` [Compound 192, (2S,4R)-1-[(2R)-2-(3-{3-[(1-{[1-(4-{3,8-diazabicyclo[3.2.1]octan-3-yl}-7-(8-ethyl-3-hydroxynaphthalen-1-yl)-8-fluoropyrido[4,3-d]pyrimidin-2-yl)piperidin-4-yl]methyl}piperidin-4-yl)methyl]azetidin-1-yl}-1,2-oxazol-5-yl)-3-methylbutanoyl]-4-hydroxy-N-[(1S)-1-[4-(4-methyl-1,3-thiazol-5-yl)phenyl]ethyl]pyrrolidine-2-carboxamide], the DC50 is above 3000 nM.
On the same count and under the same terms, the figure for `CCc1cccc2cc(O)cc(-c3ncc4c(N5CC6CCC(C5)N6)nc(N5CCC(CN6CCC(CC7CN(c8cc([C@@H](C(=O)N9C[C@H](O)C[C@H]9C(=O)N[C@@H](C)c9ccc(-c%10scnc%10C)cc9)C(C)C)on8)C7)CC6)CC5)nc4c3F)c12` [Compound 193, (2S,4R)-1-[(2S)-2-(3-{3-[(1-{[1-(4-{3,8-diazabicyclo[3.2.1]octan-3-yl}-7-(8-ethyl-3-hydroxynaphthalen-1-yl)-8-fluoropyrido[4,3-d]pyrimidin-2-yl)piperidin-4-yl]methyl}piperidin-4-yl)methyl]azetidin-1-yl}-1,2-oxazol-5-yl)-3-methylbutanoyl]-4-hydroxy-N-[(1S)-1-[4-(4-methyl-1,3-thiazol-5-yl)phenyl]ethyl]pyrrolidine-2-carboxamide] is above 3000 nM.
In turn, `CCc1cccc2cc(O)cc(-c3ncc4c(N5CC6CCC(C5)N6)nc(OCCN5CCC(F)(CN6CCN(c7cc([C@H](C(=O)N8C[C@H](O)C[C@H]8C(=O)N[C@@H](C)c8ccc(-c9scnc9C)cc8)C(C)C)on7)[C@H](C)C6)CC5)nc4c3F)c12` [Compound 194, (2S,4R)-1-[(2R)-2-{3-[(2R)-4-[(1-{2-[(4-{3,8-diazabicyclo[3.2.1]octan-3-yl}-7-(8-ethyl-3-hydroxynaphthalen-1-yl)-8-fluoropyrido[4,3-d]pyrimidin-2-yl)oxy]ethyl}-4-fluoropiperidin-4-yl)methyl]-2-methylpiperazin-1-yl]-1,2-oxazol-5-yl}-3-methylbutanoyl]-4-hydroxy-N-[(1S)-1-[4-(4-methyl-1,3-thiazol-5-yl)phenyl]ethyl]pyrrolidine-2-carboxamide] registered a Dmax of 80 to 100% and a DC50 below 600 nM.
On the same counts, the results for `CCc1cccc2cc(O)cc(-c3ncc4c(N5CC6CCC(C5)N6)nc(OCCN5CCC(F)(CN6CCN(c7cc([C@@H](C(=O)N8C[C@H](O)C[C@H]8C(=O)N[C@@H](C)c8ccc(-c9scnc9C)cc8)C(C)C)on7)C[C@H]6C)CC5)nc4c3F)c12` [Compound 195, (2S,4R)-1-[(2S)-2-{3-[(3R)-4-[(1-{2-[(4-{3,8-diazabicyclo[3.2.1]octan-3-yl}-7-(8-ethyl-3-hydroxynaphthalen-1-yl)-8-fluoropyrido[4,3-d]pyrimidin-2-yl)oxy]ethyl}-4-fluoropiperidin-4-yl)methyl]-3-methylpiperazin-1-yl]-1,2-oxazol-5-yl}-3-methylbutanoyl]-4-hydroxy-N-[(1S)-1-[4-(4-methyl-1,3-thiazol-5-yl)phenyl]ethyl]pyrrolidine-2-carboxamide] are below 20% and 1000 to 3000 nM.
Consider `CCc1cccc2cc(O)cc(-c3ncc4c(N5CC6CCC(C5)N6)nc(OCCN5CCC(F)(CN6CCN(c7cc([C@@H](C(=O)N8C[C@H](O)C[C@H]8C(=O)N[C@@H](C)c8ccc(-c9scnc9C)cc8)C(C)C)on7)C[C@@H]6C)CC5)nc4c3F)c12` [Compound 196, (2S,4R)-1-[(2S)-2-{3-[(3S)-4-[(1-{2-[(4-{3,8-diazabicyclo[3.2.1]octan-3-yl}-7-(8-ethyl-3-hydroxynaphthalen-1-yl)-8-fluoropyrido[4,3-d]pyrimidin-2-yl)oxy]ethyl}-4-fluoropiperidin-4-yl)methyl]-3-methylpiperazin-1-yl]-1,2-oxazol-5-yl}-3-methylbutanoyl]-4-hydroxy-N-[(1S)-1-[4-(4-methyl-1,3-thiazol-5-yl)phenyl]ethyl]pyrrolidine-2-carboxamide], for which the Dmax lay in the range of 20 to 60% and the DC50 lay in the range of 600 to 1000 nM.
The like results for `CCc1cccc2cc(O)cc(-c3ncc4c(N5CC6CCC(C5)N6)nc(OCCN5CCC(F)(CN6CCN(c7cc([C@@H](C(=O)N8C[C@H](O)C[C@H]8C(=O)N[C@@H](C)c8ccc(-c9ccnn9C)cc8)C(C)C)on7)CC6)CC5)nc4c3F)c12` [Compound 197, (2S,4R)-1-[(2S)-2-(3-{4-[(1-{2-[(4-{3,8-diazabicyclo[3.2.1]octan-3-yl}-7-(8-ethyl-3-hydroxynaphthalen-1-yl)-8-fluoropyrido[4,3-d]pyrimidin-2-yl)oxy]ethyl}-4-fluoropiperidin-4-yl)methyl]piperazin-1-yl}-1,2-oxazol-5-yl)-3-methylbutanoyl]-4-hydroxy-N-[(1S)-1-[4-(1-methyl-1H-pyrazol-5-yl)phenyl]ethyl] pyrrolidine-2-carboxamide] were, in that order, below 20% and 1000 to 3000 nM.
